The assay is described as follows: DVS measurement: % reduction in amount of water absorbed by treated hair. Also on record: % reduction in water absorbed: concentration or dose not given beside the values. Particulars: for % Reduction in amount of water absorbed: material at 1% wt/vol; for % reduction in water absorbed: Molecular Class II. Here is the method: The leave-on treatment compositions are prepared by adding the Moisture Control Materials and perfume, if needed, into a 50:50 ethanol/water carrier and stirred until complete dissolution. The solution pH is adjusted using sodium hydroxide (50% w/w) to a final pH of 4.0-4.2.
The hair is allowed to air dry and then analyzed using the DVS method described above. The experiment is repeated for a dosage of 0.50 g of solution per g of hair. The hair in this case is also assessed by expert graders, as described below, in addition to the DVS analysis.
An amount of 25-30 mg of hair with length of approximately 1 cm is weighed and hold for equilibration at 0% RH for 16 hours. After the 16-hour period, the RH is increased to 10% and maintained at this level for 6 hours. Then, the RH is increased by 10% after every 6 hours interval until it reaches 90% RH. The % reduction in amount of water absorbed is calculated as follows:
A=Amount of water absorbed by the hair treated with composition containing the Moisture Control Material
B=Amount of water absorbed by the hair treated with control composition (only carrier) containing no Moisture Control Material % reduction in amount of water absorbed=[(B−A)×100]/B

As for `O=C(O)c1ccc(O)cc1O` [2,4-Dihydroxybenzoic acid], the “% Reduction in amount of water absorbed” value was 30%.

Consider `O=C(O)c1cc(O)c(C(=O)O)cc1O` [2,5 Dihydroxyterephthalic acid], for which the “% Reduction in amount of water absorbed” value is 18%.

Consider `O=C(O)c1cc(O)ccc1O` [2,5-Dihydroxybenzoic acid], for which the “% Reduction in amount of water absorbed” value is given as 27%.

For the compound `O=C(O)c1c(O)cccc1O` [2,6-Dihydroxybenzoic acid], the “% Reduction in amount of water absorbed” value was determined as 35%.

Regarding `Nc1ccccc1O` [2-Aminophenol], the “% Reduction in amount of water absorbed” value was 14%.

For `CCCCCCCCC(CO)CCCCCC` (stereo not drawn) [2-Hexyl-1-decanol], the “% reduction in water absorbed” value is given as 11%.

Regarding `O=C(OCCO)c1ccccc1O` [2-Hydroxyethyl salicylate], the “% reduction in water absorbed” value amounted to 10%.

Regarding `O=C(O)c1ccc(O)c(O)c1` [3,4-Dihydroxybenzoic acid], the “% Reduction in amount of water absorbed” value came to 20%.

Consider `O=C(O)c1cc(Cl)c(O)c(Cl)c1` [3,5-Dichloro-4-hydroxybenzoic acid], for which the “% Reduction in amount of water absorbed” value was 15%.

In the case of `O=C(O)c1cc(O)cc(O)c1` [3,5-Dihydroxybenzoic acid], the “% Reduction in amount of water absorbed” value was 15%.

Consider `Nc1cccc(C(=O)O)c1` [3-Aminobenzoic acid], for which the “% Reduction in amount of water absorbed” value was 12%.

In the case of `Nc1cccc(O)c1` [3-Aminophenol], the “% Reduction in amount of water absorbed” value amounted to 14%.

As for `O=C(O)c1ccc(O)c(Cl)c1` [3-Chloro-4-hydroxybenzoic acid], the “% Reduction in amount of water absorbed” value worked out at 11%.

For the compound `Cl.Nc1cccc(O)c1` [3-Hydroxyanilinium chloride], the “% Reduction in amount of water absorbed” value amounted to 16%.

For the compound `O=C(O)c1cccc(O)c1` [3-Hydroxybenzoic Acid], the “% Reduction in amount of water absorbed” value is on record as 20%.

As to `Nc1ccc(C(=O)O)cc1` [4-Aminobenzoic acid], the “% Reduction in amount of water absorbed” value is reported as 12%.

In the case of `Nc1ccc(O)cc1` [4-Aminophenol], the “% Reduction in amount of water absorbed” value stood at 10%.

Consider `O=S(=O)(O)c1ccc(O)cc1` [4-Hydroxybenzenesulphonic acid], for which the “% Reduction in amount of water absorbed” value was 26%.

`O=C(O)c1cc(Cl)ccc1O` [5-Chlorosalicylic acid]: the “% Reduction in amount of water absorbed” value was found to be 28%.

For the compound `CCOC(=O)c1cc(O)c(O)c(O)c1` [Ethyl gallate], the “% reduction in water absorbed” value turned out to be 17%.

For the compound `CCCCC/C=C\C/C=C\CCCCCCCC(=O)OCC` [Ethyl linoleate], the “% reduction in water absorbed” value stood at 8%.

As to `O=C(O)c1cc(O)c(O)c(O)c1` [Gallic acid], the “% Reduction in amount of water absorbed” value turned out to be 15%.

As for `CCCCCCCC/C=C\CCCCCCCC(=O)OCC(O)CO` (stereo not drawn) [Glyceryl monooleate], the “% reduction in water absorbed” value was 5%.

`CC(C)C(=O)O` [Isobutyric acid]: the “% reduction in water absorbed” value was found to be 5%.

Turning to `CCCCCCCCCCCCCC(=O)OC(C)C` [Isopropyl myristate], the “% reduction in water absorbed” value is 12%.

With `CC(C)CCCCCCCCCCCCCCCOC(=O)CCCCCCCCCCCCCCC(C)C` [Isostearyl isostearate], the “% reduction in water absorbed” value was 11%.

Turning to `O=C(O)CNc1ccc(O)cc1` [N-4-Hydroxyphenylglycine], the “% Reduction in amount of water absorbed” value is given as 15%.

Consider `CCCCCCCC/C=C\CCCCCCCC(=O)O` [Oleic Acid], for which the “% reduction in water absorbed” value is 14%.

Consider `C/C(=C\CO)CCC[C@H](C)CCC[C@H](C)CCCC(C)C` [Phytol], for which the “% reduction in water absorbed” value came out at 14%.

As for `CCCCCC[C@@H](O)C/C=C\CCCCCCCC(=O)O` [Ricinoleic acid], the “% reduction in water absorbed” value worked out at 8.8%.

Consider `COc1cc(/C=C/C(=O)O)ccc1O` [Trans-Ferulic Acid], for which the “% Reduction in amount of water absorbed” value came out at 6%.

As to `O=C(O)/C=C/c1ccc(O)cc1` [p-Coumaric acid], the “% Reduction in amount of water absorbed” value turned out to be 8.8%.

As for Sorbitan caprylate, the “% reduction in water absorbed” value is 11%.
